Measurements reported in patent publication US20020160968A1, “Inhibitors of cellular niacinamide mononucleotide formation and their use in cancer therapy” (Klinge Pharma GmbH, priority 1999, published 2002).
Where two headings read alike, the source gives them in different places.

Legend:
Format in all cases: cell-based, human
[1] = tested on: NAD(P) synthesis from niacinamide in HepG2 cells; experiment: Determination of NAD(P) synthesis from [14C]niacinamide in HepG2 cells; details: for activity at 10 µM: read-out: NAD(P) % of Control
Excerpt: The effect of the compounds on the synthesis of NAD(P) starting from niacinamide was investigated using for example the tumor cell line HepG2 according to the technique described in the experimental part below.
The inhibition of the NAD(P) synthesis from niacinamide by these compounds was investigated in HepG2 cells as described in the section “Material and Methods”. The compounds of Table 3 a were used at a concentration of 10^−5 M. The compounds of Table 3 b were used at concentrations of at least 10^−5 M, except for Doxorubicin where the concentration was 0.3×10^−5 M. As a control, vehicle treated or untreated cells were used.
In these experiments, a pre-incubation period of 17 hrs with the compounds was used, but it turned out that the pre-incubations period could be shortened, for example to 2 hrs, or skipped completely without affecting the inhibition profile. […] Similar results were obtained with the other specific compounds.
For the detection of specific inhibitors of niacinamide mononucleotide formation the following screening assay is especially useful which comprises the following steps: incubating cultured cells selected from HepG2 cells, U-87 MG cells, MCF-7 M1 cells, Caki-1 cells, HL-60 cells, PC3 cells, U-373 MG cells, A549 cells and KG-1a cells in the presence of [^14C]niacinamide and a compound to be tested for its activity to inhibit the cellular formation of niacinamide mononucleotide; effecting lysis of the cells; isolating and separating the [^14C]-labeled compounds and measuring the amount of formed labeled niacinamide mononucleotide, NAD and NADP. More concretely, cultured cells are seeded in a defined density in culture dishes, followed by incubation in the presence of a test compound and by the addition of [^14C]niacinamide for about 0.1 to 6 hrs. The cells are then lysed with perchloric acid and the resulting extract is neutralized. Finally, the [^14C]-labeled compounds are separated by thin-layer chromatography on cellulose matrices followed by UV detection and autoradiography. Non-radioactive niacinamide derivatives are used as standards. This assay allows simple and effective screening and selection of the compounds according to the invention.
Determination of NAD(P) Synthesis from [^14C]Niacinamide
The cells were detached from 75 cm^2 flasks by removing the growth medium and adding 3 ml trypsin/EDTA solution to each flask. After about 5 minutes incubation at 37° C., when the cells were detached from the surface of the dishes, trypsinization was stopped by adding 3 ml Richter's IMEM-ZO medium containing 10% FCS. The cells were suspended by repeated pipetting. For predilution, an aliquot of 20 μl was added to 10 ml Casyton isotonic solution (No. 043-90037P, Schärfe System, Reutlingen, Germany) using a Sysmex Auto Dilutor Type AD-260 (Toa, Medical Electronics Co. Ltd., Kobe, Japan). The cell number was determined by electronic cell volume measurements and counting with a CASY 1 Cell Counter+Analyzer System, Model TTC (Schärfe System, Reutlingen, Germany) equipped with a 60 μm capillary. Following dilution in IMEM-ZO containing 10% FCS, the cells were finally seeded at a density of 4×10^6/10 ml per sample in Ø 10 cm tissue culture dishes (Greiner, Frickenhausen, Germany) and incubated at 37° C. in a humidified atmosphere of 5% CO2 in air.
After one day, when the cells were adherent to the dishes, the cultures were replenished with IMEM-ZO containing 5% FCS plus the test compound or the vehicle. […] The cells were then incubated at 37° C. for 17 hours in a humidified atmosphere of 5% CO2 in air. This preincubation period is not necessary to achieve a distinct inhibitory action of the compounds and can be shortened for example to 2 or 0 hours. After this period of time, the medium was again discarded and 4 ml HEPES-buffered IMEM-ZO containing the test compound or the vehicle and 0.5 μCi/ml [^14C]niacinamide were added to each culture for an additional 5 hours at 37° C. and 100% humidity. […]

Hep G2 cells = experiment: Nicotinamide Reversibility Assay / cell growth inhibition of Hep G2 cells (SRB, six days); details: for Influence of the addition of nicotinamide on the action on cell growth (FIGS. 20 to 27) / IC50: Hep G2; for IC50: six days of compound incubation, SRB, read-out: Cell growth inhibition IC50-values [μM] Hep G2; for Reversal by Niacinamide: Hep G2 cell growth inhibition with added nicotinamide
Protocol: Nicotinamide Reversibility Assay
Hep G2 cells derived from a human liver carcinoma were plated at a density of 20,000 cells/ml in 12-well plastic dishes. Cultivation occurred in Richters IMEM-ZO nutrient medium with 5% fetal calf serum (FCS) in a tissue culture incubator with a gas mixture of 5% CO2 and 95% air at a temperature of 37° C. One day after plating, the culture medium was aspirated from the cells and replaced by fresh medium which contained the respective concentrations of the test compounds and where applicable of the nicotinamide. For the individual concentrations and the controls without test compounds, three-fold batches were done for each. Three days after the beginning of treatment, the medium was again renewed with the test compounds and where applicable the nicotinamide. After six days of compound incubation, the test was ended and the protein amount in the individual wells was determined with the sulforhodamin-B-method (according. to P. Skehan et al.: New Colorimetric Cytotoxicity Assay for Anticancer-Drug Screening. J. Natl. Cancer Inst. 82: 1107-1112, 1990). The IC50-values were taken from the dose-response curves and given as a comparative measurement for the activity of the test compounds.

HepG2 cells = experiment: Cell growth under high-density conditions (SRB assay), delayed cell death (DCD); details: for minimal effective concentration: Homo sapiens
[2] = Table 3b, at least 10^-5 M, control 374.00
[3] = Table 3b, toxic compounds at at least 10^-5 M, control 531
[4] = Homo sapiens, 10 μM, read-out: Cellular NAD synthesis inhibition [%]
[5] = Homo sapiens, Table 3a, compound 10^-5 M
[6] = Table 3a, compound 10^-5 M, 17 hrs pre-incubation, control 302.1
[7] = Table 3a, compound 10^-5 M, control 186.4
[8] = Table 5, high density HepG2 cultures
[9] = minimum concentration which, despite initial growth, induced cell death below the number of initially seeded cells, high density HepG2 cultures, Table 2

Row | SMILES | Cellular NAD synthesis inhibition [%] ([1]; 10 μM) | NAD(P) % of Control ([1]; Table 3b, at least 10^-5 M) [%] | NAD(P) pmol/mg protein [1, 2] [pmol/mg protein] | NAD(P) pmol/10^6 cells [1, 3] [pmol/10^6 cells] | Influence of the addition of nicotinamide on the action on cell growth (FIGS. 20 to 27) (Hep G2 cells) | IC50 (Hep G2 cells) [µM] | Reversal by Niacinamide (Hep G2 cells) | Tox. (effective (toxic) concentration) in DCD (HepG2 cells; toxic compounds, high density HepG2 cultures, rapid decrease in cell numbers) | inhibition at 10 µM [1, 4] [%] | activity at 10 µM [1, 5] [%] | NAD(P) pmol/10^6 cells [1, 6] [pmol/10^6 cells] | NAD(P) pmol/mg protein [1, 7] [pmol/mg protein] | IC50 (Hep G2 cells; Homo sapiens, HepG2, 144 h) [µM] | minimal effective concentration (HepG2 cells; [8]) [µM] | minimal effective concentration (HepG2 cells; [9]) [µM] | inhibition at 1 µM ([1]; Homo sapiens, 1 μM, read-out: Cellular NAD synthesis inhibition [%]) [%] | Day on which cell death occurred (HepG2 cells; concentrations of at least 0.3 μM, high density HepG2 culture) [days]
1 | NC(=O)c1c[se]c([C@@H]2O[C@H](CO)[C@@H](O)[C@H]2O)n1 [Selenazofurin, reference compound] | 30 (10 μM) % | 70.2 | 372.29 | 372.29 | no measurable influence | 0.7 | no | Tox. 30 μM |  |  |  |  |  |  |  |  | 
2 | O=C(NCCCCCCNC(=O)N1CCN(C(c2ccccc2)c2ccccc2)CC1)NCc1cccnc1 [Compound K22132, 4-benzhydryl-piperazine-1-carboxylic acid-[6-(3-pyridine-3-yl-methylureido)-hexyl]-amide] |  |  |  |  |  |  |  |  | 99 | 1.4 | 4.1 | 2.5 | 0.02 | 0.03 | 0.1 |  | 
3 | S=C(NCCCCCC1CCN(C(c2ccccc2)c2ccccc2)CC1)Nc1cccnc1 [Compound K22234, 1-[5-(1-benzhydryl-piperidine-4-yl)-pentyl]-3-pyridine-3-yl-thiourea] |  |  |  |  |  |  |  |  | 99 | 1.1 | 3.4 | 2.1 | 0.2 | 0.3 | 0.3 |  | 
4 | O=C(NCCCCC1CCN(C(c2ccccc2)c2ccccc2)CC1)Nc1cccnc1 [Compound K22130, 1-[4-(1-benzhydryl-piperidine-4-yl)-butyl]-3-pyridine-3-yl-urea] |  |  |  |  |  |  |  |  |  |  |  |  | 0.08 | 1 | 1 |  | 
5 | O=C(NCCCCC1CCN(C(c2ccccc2)c2ccccc2)CC1)NCCc1cccnc1 [Compound K22339, 1-[4-(1-benzhydryl-piperidine-4-yl)-butyl]-3-(2-pyridine-3-ylethyl)-urea] |  |  |  |  | can be antagonized |  | yes |  |  | 0.8 | 2.5 | 1.6 | 0.1 | 0.1 | 0.3 | 99 | 4
6 | [N-]=[N+]=CC(=O)OC[C@H](N)C(=O)O [Azaserine, reference compound] |  | 100.0 | 374.23 | 530.64 | no measurable influence |  | no |  | 0 |  |  |  | 0.7 |  |  |  | 
